Eleven compounds from patent publication US5319085A, “Quinoline derivative having serotonin-3 receptor antagonizing activity” (priority 1990, dated 1994) can be followed below.

SMILES strings stand for the structures. pKi: −log10 of the molar value.

One series relates to 5HT3 receptor. Nature of the series: 5HT3 receptor binding test, [3H] quipazine, NG108-15 cell membrane fraction. Set-up: species or system rat. The note with it: for Inhibition Rate (%) (Concentration 10^-7 M) / Inhibition Rate (%) (Concentration 10^-8 M): inhibition of 2 nM [3H] quipazine binding; for pKi: [3H] quipazine, Cheng Prusoff equation, 37° C., 60 minutes. How it is done:
Using rat neuroblastoma-glyoma NG108-15 cell membrane fraction, the binding activities of the test compounds to 5HT3 receptor were examined.
A membrane fraction of NG108-15 cells was prepared according to the method of Neijt et al. [Naunyn-Schmiedeberg's Arch. Parmacol. 337, 493-499 (1988)].
The receptor binding experiment was performed using [^3 H] quipazine [J. Neurochem., 52, 1787 (1989)], a high affinity ligand to 5HT3 receptor.
A membrane fraction obtained from 4×10^5 NG108-15 cells was suspended in 1 ml of 20 mM Tris-hydrochloride buffer (pH 7.5) containing 154 mM sodium chloride. Then, 2 nM [^3 H] quipazine (2519.7 GBq/mmol; Du Pont Co., Ltd.) and various concentrations of the test compound were added to the suspension followed by incubating at 37° C. for 60 minutes. Then, 4 ml of an ice-cooled buffer was added to terminate the reaction and then the mixture was filtered through CF/C glass fiber filter (Whatmann Co., Ltd.). The filter was washed with the buffer, and put in a scintillation vial. Scintisol EX-H (Wako Pure Chemicals, Inc.) was added to the scintillation vial. Radioactivity on the filter was counted in a liquid scintillation counter.
An inhibition rate of the [^3 H] quipazine binding for the test compound was estimated according to the equation; [formula]
Ki values were estimated based on the resultant inhibition rates according to the Cheng Prusoff equation.
In this test, the comparison was made between Compound (I) and Compound C disclosed in Japanese Published Unexamined Patent Application No. 72886/85 as the reference compound.

The test system of another series is ddY strain male mice. Nature of the series: Acute toxicity, minimum lethal dose. In kind it is in vivo. The note with it: mortality for 7 days. How it is done:
The test Compound was orally and intraperitoneally administered to ddY strain male mice weighing 20 to 25 g. MLD (Minimum Lethal Dose) was determined by observing the mortality for 7 days after the administration.

Series [1] relates to Cisplatin-induced vomiting. The experiment in a line: Activity against Cisplatin-induced vomiting. In kind it is in vivo, Suncus mirinus. The note with it: for Number of Vomiting (mean ± S.E.M.): 5 to 120 minutes; for Latency (min.) (mean ± S.E.M.): time to first vomiting. The protocol:
Female and male Suncus mirinus animals weighing 23 to 68 g were used, one group consisting of 5 to 10 animals. According to the method of Matsuki et al. (Japan J. Pharmacol., 48, 303 (1988)], the animals were isolated in metal mesh cage (one animal/one cage). One hour after, the test compound or physiological saline (control) was intraperitoneally administered (i.p.) in a volume of 10 ul/g of body weight. Further 30 minutes after administration of the test compound, Cisplatin (20 or 40 mg/kg) was intraperitoneally administered. After administration of Cisplatin, a time period (latency) for the first vomiting and the number of frequencies of vomiting caused in the period of 5 to 120 minutes after administration, were determined. The latency and the number of frequencies in the test compound administered group were compared with those in the control group. The test of significance was performed by Student's t-test.

Where [2] appears, read: 0.01 mg/kg i.p., Cisplatin 20 mg/kg.
Setting [3] is: 0.03 mg/kg i.p., Cisplatin 20 mg/kg.
Where [4] appears, read: 0.1 mg/kg i.p., Cisplatin 20 mg/kg.
The mark [5] stands for this setting: 0.3 mg/kg i.p., Cisplatin 20 mg/kg.
The mark [6] stands for this setting: 1.0 mg/kg i.p., Cisplatin 20 mg/kg.
Setting [7] is: 0.1 mg/kg i.p., Cisplatin 40 mg/kg.
Setting [8] is: 0.3 mg/kg i.p., Cisplatin 40 mg/kg.
The mark [9] stands for this setting: 1.0 mg/kg i.p., Cisplatin 40 mg/kg.
Where [10] appears, read: 10.0 mg/kg i.p., Cisplatin 40 mg/kg.

With `CC(C)Oc1cc(C(=O)O[C@H]2C[C@H]3CC[C@@H](C2)N3C)c2ccccc2n1` [Compound 3Sa, Endo-(8-methyl-8-azabicyclo[3.2.1]oct-3-yl) 2-isopropoxy-4-quinolinecarboxylate], in the series on 5HT3 receptor, the “Inhibition Rate (%) (Concentration 10^-7 M)” value is listed as 104%; the “Inhibition Rate (%) (Concentration 10^-8 M)” value turned out to be 101%; the pKi (usually −log10 of the Ki, conventionally taken in molar units) is 9.51. The “MLD (Minimum Lethal Dose)” value with ddY strain male mice (i.p.) amounted to 200 mg/kg. In the series with ddY strain male mice (p.o.), the “MLD (Minimum Lethal Dose)” value is more than 100 mg/kg.

In the case of `CC(C)COc1cc(C(=O)O[C@H]2C[C@H]3CC[C@@H](C2)N3C)c2ccccc2n1` [Compound 7Sa, Endo-(8-methyl-8-azabicyclo[3.2.1]oct-3-yl) 2-isobutoxy-4-quinolinecarboxylate], in the series with 5HT3 receptor, the “Inhibition Rate (%) (Concentration 10^-7 M)” value is 108%, the “Inhibition Rate (%) (Concentration 10^-8 M)” value worked out at 101% and the pKi was 9.36. Besides, the “MLD (Minimum Lethal Dose)” value in the series with ddY strain male mice (i.p.) turned out to be 300 mg/kg. Besides, the “MLD (Minimum Lethal Dose)” value in the series on ddY strain male mice (p.o.) is recorded as more than 100 mg/kg.

Consider `CCCCCCOc1cc(C(=O)O[C@H]2C[C@H]3CC[C@@H](C2)N3C)c2ccccc2n1` [Compound 9Sa, Endo-(8-methyl-8-azabicyclo[3.2.1]oct-3-yl) 2-n-hexyloxy-4-quinolinecarboxylate], for which, in the series on 5HT3 receptor, the “Inhibition Rate (%) (Concentration 10^-7 M)” value is 97%, the “Inhibition Rate (%) (Concentration 10^-8 M)” value is given as 74% and the pKi is 8.49. Besides, in the series with ddY strain male mice (i.p.), the “MLD (Minimum Lethal Dose)” value is listed as more than 300 mg/kg. Besides, the “MLD (Minimum Lethal Dose)” value in the series on ddY strain male mice (p.o.) was found to be 50 mg/kg.

For `COc1cc(C(=O)O[C@H]2C[C@H]3CC[C@@H](C2)N3C)c2ccccc2n1` [Compound 4Sa, Endo-(8-methyl-8-azabicyclo[3.2.1]oct-3-yl) 2-methoxy-4-quinolinecarboxylate], in the series on 5HT3 receptor, the “Inhibition Rate (%) (Concentration 10^-7 M)” value came out at 104%, the “Inhibition Rate (%) (Concentration 10^-8 M)” value is reported as 98% and the pKi was 9.24. Moreover, the “MLD (Minimum Lethal Dose)” value in the series with ddY strain male mice (i.p.) was found to be 200 mg/kg. In the series with ddY strain male mice (p.o.), the “MLD (Minimum Lethal Dose)” value turned out to be 50 mg/kg.

Turning to `CN1[C@@H]2CC[C@H]1C[C@@H](NC(=O)c1cnc3ccccc3c1O)C2` [Compound 6Sa, Endo-N-(8-methyl-8-azabicyclo[3.2.1]oct-3-yl)-4-hydroxy-3-quinolinecarboxamide], the “Inhibition Rate (%) (Concentration 10^-7 M)” value in the series with 5HT3 receptor came to 101%. Also, the “Inhibition Rate (%) (Concentration 10^-8 M)” value with 5HT3 receptor worked out at 89%. In addition, the pKi in the series with 5HT3 receptor is 8.68. Moreover, the “Number of Vomiting (mean ± S.E.M.)” value in series [1] (setting [2]) came to 10.0 ± 4.0; in series [1] (setting [3]) it was 8.2 ± 1.4; in series [1] (setting [4]) it was 7.4 ± 2.6; in series [1] (setting [5]) it was 0.0 ± 0; in series [1] (setting [6]) it was 0.0 ± 0. Besides, the “Latency (min.) (mean ± S.E.M.)” value is 58.2 ± 9.9 min in series [1] (setting [2]); 52.6 ± 4.2 min in series [1] (setting [3]); 85.7 ± 9.7 min in series [1] (setting [4]); 120.0 ± 0 min in series [1] (setting [5]); 120.0 ± 0 min in series [1] (setting [6]). Also, the “MLD (Minimum Lethal Dose)” value in the series with ddY strain male mice (i.p.) was more than 300 mg/kg; in the series with ddY strain male mice (p.o.), more than 100 mg/kg.

Regarding `CN1[C@@H]2CCC[C@H]1C[C@@H](OC(=O)c1cnc3ccccc3c1)C2` [CSa, Endo-(9-methyl-9-azabicyclo[3.3.1]non-3-yl) 3-quinolinecarboxylate, reference compound], in the series with 5HT3 receptor, the “Inhibition Rate (%) (Concentration 10^-7 M)” value came out at 84%, the “Inhibition Rate (%) (Concentration 10^-8 M)” value was 12% and the pKi is 7.54.

With `CCCCOc1cc(C(=O)O[C@H]2C[C@H]3CC[C@@H](C2)N3C)c2ccccc2n1` [Compound 1Sa, Endo-(8-methyl-8-azabicyclo[3.2.1]oct-3-yl) 2-n-butoxy-4-quinolinecarboxylate], in the series with 5HT3 receptor, the “Inhibition Rate (%) (Concentration 10^-7 M)” value is 104%, the “Inhibition Rate (%) (Concentration 10^-8 M)” value amounted to 99% and the pKi is 9.41. The “MLD (Minimum Lethal Dose)” value in the series on ddY strain male mice (i.p.) was 200 mg/kg. Also, the “MLD (Minimum Lethal Dose)” value in the series with ddY strain male mice (p.o.) turned out to be 100 mg/kg.

With `CCCCCOc1cc(C(=O)O[C@H]2C[C@H]3CC[C@@H](C2)N3C)c2ccccc2n1` [Compound 8Sa, Endo-(8-methyl-8-azabicyclo[3.2.1]oct-3-yl) 2-n-pentyloxy-4-quinolinecarboxylate], in the series on 5HT3 receptor, the “Inhibition Rate (%) (Concentration 10^-7 M)” value is 97%, the “Inhibition Rate (%) (Concentration 10^-8 M)” value worked out at 94% and the pKi was 9.07. The “MLD (Minimum Lethal Dose)” value with ddY strain male mice (i.p.) is recorded as more than 300 mg/kg. Further, the “MLD (Minimum Lethal Dose)” value in the series on ddY strain male mice (p.o.) is listed as more than 100 mg/kg.

Regarding `CCCOc1cc(C(=O)O[C@H]2C[C@H]3CC[C@@H](C2)N3C)c2ccccc2n1` [Compound 2Sa, Endo-(8-methyl-8-azabicyclo[3.2.1]oct-3-yl) 2-n-propoxy-4-quinolinecarboxylate], in the series on 5HT3 receptor, the “Inhibition Rate (%) (Concentration 10^-7 M)” value is recorded as 104%, the “Inhibition Rate (%) (Concentration 10^-8 M)” value was found to be 101% and the pKi is 9.49. Also, in the series on ddY strain male mice (i.p.), the “MLD (Minimum Lethal Dose)” value turned out to be 100 mg/kg. Besides, the “MLD (Minimum Lethal Dose)” value with ddY strain male mice (p.o.) is on record as 100 mg/kg.

As for `CCOc1cc(C(=O)O[C@H]2C[C@H]3CC[C@@H](C2)N3C)c2ccccc2n1` [Compound 10Sa, Endo-(8-methyl-8-azabicyclo[3.2.1]oct-3-yl) 2-ethoxy-4-quinolinecarboxylate], in the series on 5HT3 receptor, the “Inhibition Rate (%) (Concentration 10^-7 M)” value is recorded as 99%, the “Inhibition Rate (%) (Concentration 10^-8 M)” value is recorded as 96% and the pKi is 9.06. Also, in the series with ddY strain male mice (i.p.), the “MLD (Minimum Lethal Dose)” value was found to be 100 mg/kg. The “MLD (Minimum Lethal Dose)” value in the series with ddY strain male mice (p.o.) is recorded as 50 mg/kg.

Consider `CN1[C@@H]2CC[C@H]1C[C@@H](OC(=O)c1cnc3ccccc3c1O)C2` [5S'a, Endo-(8-methyl-8-azabicyclo[3.2.1]oct-3-yl) 4-hydroxy-3-quinolinecarboxylate], for which the “Inhibition Rate (%) (Concentration 10^-7 M)” value in the series on 5HT3 receptor is 107%. The pKi with 5HT3 receptor is 8.21. The “Number of Vomiting (mean ± S.E.M.)” value in series [1] (setting [7]) came out at 29.6 ± 3.5; in series [1] (setting [8]), 13.2 ± 4.8; in series [1] (setting [9]) it was 4.3 ± 2.4; in series [1] (setting [10]), 7.6 ± 7.6. Further, the “Latency (min.) (mean ± S.E.M.)” value worked out at 41.4 ± 0.7 min in series [1] (setting [7]), 69.6 ± 13.4 min in series [1] (setting [8]), 103.5 ± 10.3 min in series [1] (setting [9]) and 105.1 ± 14.9 min in series [1] (setting [10]). The “MLD (Minimum Lethal Dose)” value is reported as more than 300 mg/kg in the series on ddY strain male mice (i.p.) and more than 100 mg/kg in the series with ddY strain male mice (p.o.).
